Test results from patent US20150197492A1, “NOVEL INDENO[1,2-c]QUINOLIN-11-ONE DERIVATIVES, PREPARATION METHOD AND APPLICATION THEREOF” (National Defense Medical Center, priority 2014, published 2015).

Columns and labels:
Format in all cases: cell-based
SN12C = test: cells; conditions: SN12C (Renal Cancer), 10 μM, 48 hours
UACC-62 = test: cells; conditions: UACC-62 (Melanoma), 10 μM, 48 hours
MOLT-4 = test: cells; conditions: MOLT-4 (Leukemia), 10 μM, 48 hours
[1] = tested on: 55 to 60 cancer cell lines; conditions: 10 μM, 48 hours, all tested cell lines
HT29 = test: cells; conditions: HT29 (Colon Cancer), 10 μM, 48 hours
RPMI-8226 = test: cells; conditions: RPMI-8226 (Leukemia), 10 μM, 48 hours
SK-OV-3 = test: cells; conditions: SK-OV-3 (Ovarian Cancer), 10 μM, 48 hours
A498 = test: cells; conditions: A498 (Renal Cancer), 10 μM, 48 hours
HCT-15 = test: cells; conditions: HCT-15 (Colon Cancer), 10 μM, 48 hours
U251 = test: cells; conditions: U251 (CNS Cancer), 10 μM, 48 hours
SNB-75 = test: cells; conditions: SNB-75 (CNS Cancer), 10 μM, 48 hours
NCI-H226 = test: cells; conditions: NCI-H226 (Non-Small Cell Lung Cancer), 10 μM, 48 hours
SNB-19 = test: cells; conditions: SNB-19 (CNS Cancer), 10 μM, 48 hours
MDA-MB-435 = test: cells; conditions: MDA-MB-435 (Melanoma), 10 μM, 48 hours
MALME-3M = test: cells; conditions: MALME-3M (Melanoma), 10 μM, 48 hours
ACHN = test: cells; conditions: ACHN (Renal Cancer), 10 μM, 48 hours
human PC-3 cells = test: Sulforhodamine B (SRB) assay, cytotoxicity against PC-3 cells; conditions: SRB assay, PC-3 cells
Outline: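 PC-3 cells in 5% FBS were fixed with 10% TCA after 24 h as T0, then treated with compound for 48 h, fixed, stained with 0.4% SRB in 1% acetic acid and solubilized in 10 mmol/L Trizma base. Absorbance was read at 515 nm. GI% = 100−[(Tx−T0)/(C−T0)]×100, and IC50 is the concentration halving total protein.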

T-47D = test: cells; conditions: T-47D (Breast Cancer), 10 μM, 48 hours
786-0 = test: cells; conditions: 786-0 (Renal Cancer), 10 μM, 48 hours
IGROV1 = test: cells; conditions: IGROV1 (Ovarian Cancer), 10 μM, 48 hours
KM12 = test: cells; conditions: KM12 (Colon Cancer), 10 μM, 48 hours
K-562 = test: cells; conditions: K-562 (Leukemia), 10 μM, 48 hours
UO-31 = test: cells; conditions: UO-31 (Renal Cancer), 10 μM, 48 hours
OVCAR-4 = test: cells; conditions: OVCAR-4 (Ovarian Cancer), 10 μM, 48 hours
SW-620 = test: cells; conditions: SW-620 (Colon Cancer), 10 μM, 48 hours
MCF7 = test: cells; conditions: MCF7 (Breast Cancer), 10 μM, 48 hours
MDA-MB-468 = test: cells; conditions: MDA-MB-468 (Breast Cancer), 10 μM, 48 hours
SK-MEL-28 = test: cells; conditions: SK-MEL-28 (Melanoma), 10 μM, 48 hours
UACC-257 = test: cells; conditions: UACC-257 (Melanoma), 10 μM, 48 hours
RXF 393 = test: cells; conditions: RXF 393 (Renal Cancer), 10 μM, 48 hours

## O=C1c2cc(Cl)ccc2-c2c(N3CCN(C(=O)N4CCCCC4)CC3)nc3ccccc3c21 [SJ-23]
SN12C
  growth percentage: 101.12%
UACC-62
  growth percentage: 93.92%
MOLT-4
  growth percentage: 104.77%
[1]
  Mean (mean growth percentage of the tested cancer cell lines): 100.53%
HT29
  growth percentage: 108.65%
RPMI-8226
  growth percentage: 104.31%
SK-OV-3
  growth percentage: 95.59%
A498
  growth percentage: 104.44%
HCT-15
  growth percentage: 99.35%
U251
  growth percentage: 98.15%
SNB-75
  growth percentage: 80.84%
NCI-H226
  growth percentage: 96.06%
SNB-19
  growth percentage: 108.66%
MDA-MB-435
  growth percentage: 102.57%
MALME-3M
  growth percentage: 102.62%
ACHN
  growth percentage: 95.59%
Human PC-3 cells
  Toxicity (%): 43%
Human PC-3 cells; 10 μM
  GI % (10 μM): 100%
T-47D
  growth percentage: 95.99%
786-0
  growth percentage: 105.05%
IGROV1
  growth percentage: 81.63%
KM12
  growth percentage: 101.58%
K-562
  growth percentage: 95.70%
UO-31
  growth percentage: 82.74%
OVCAR-4
  growth percentage: 98.31%
SW-620
  growth percentage: 92.51%
MCF7
  growth percentage: 97.24%
MDA-MB-468
  growth percentage: 106.42%
SK-MEL-28
  growth percentage: 107.03%
UACC-257
  growth percentage: 104.23%
RXF 393
  growth percentage: 107.22%
